Experimental data as given in ChEMBL document CHEMBL2331386, “Design, synthesis and SAR of piperidyl-oxadiazoles as 11β-hydroxysteroid dehydrogenase 1 inhibitors” (Eur J Med Chem, 2013).
pIC50: −log10 of the molar value.

Key:
[1] = target: 11-beta-hydroxysteroid dehydrogenase 1 (Homo sapiens, UniProt P28845); test: Inhibition of human 11-beta HSD1 transfected in HEK293 cell microsomes assessed as decrease in [3H]cortisol generation using [3H]cortisone as substrate measured after 60 mins by scintillation proximity assay; parameters: species or system Microsome
11-beta-hydroxysteroid dehydrogenase 1, sequence (P28845 whole entry): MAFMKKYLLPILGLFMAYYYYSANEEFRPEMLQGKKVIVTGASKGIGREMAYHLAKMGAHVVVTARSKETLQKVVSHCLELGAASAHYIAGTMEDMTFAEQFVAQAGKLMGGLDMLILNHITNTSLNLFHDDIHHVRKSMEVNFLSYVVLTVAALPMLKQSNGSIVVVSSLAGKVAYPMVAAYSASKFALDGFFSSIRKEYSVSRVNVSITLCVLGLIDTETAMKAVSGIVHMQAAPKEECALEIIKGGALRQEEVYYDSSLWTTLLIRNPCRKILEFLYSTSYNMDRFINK

CYP3A4 = CYP3A4 (Homo sapiens, UniProt P08684); test: Inhibition of CYP3A4 in human microsomes using midazolam as substrate at 10 uM after 5 mins; assay type: ADME, Microsome; details: probe midazolam
CYP3A4, sequence (P08684 whole entry): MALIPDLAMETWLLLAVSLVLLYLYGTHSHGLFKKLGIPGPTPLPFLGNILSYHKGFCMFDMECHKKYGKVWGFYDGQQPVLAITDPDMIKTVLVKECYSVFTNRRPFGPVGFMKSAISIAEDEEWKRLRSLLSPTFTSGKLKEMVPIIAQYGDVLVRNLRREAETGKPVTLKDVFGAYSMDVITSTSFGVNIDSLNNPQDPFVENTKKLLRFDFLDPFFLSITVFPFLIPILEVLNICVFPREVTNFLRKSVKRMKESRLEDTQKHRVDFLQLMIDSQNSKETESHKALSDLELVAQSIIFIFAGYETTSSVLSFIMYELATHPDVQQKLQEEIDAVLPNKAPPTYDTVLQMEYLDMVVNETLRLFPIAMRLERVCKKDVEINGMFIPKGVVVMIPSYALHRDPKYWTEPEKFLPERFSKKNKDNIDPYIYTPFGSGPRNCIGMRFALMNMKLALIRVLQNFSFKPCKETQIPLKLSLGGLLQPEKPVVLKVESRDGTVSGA

[2] = Intrinsic clearance in human liver microsomes at 1 uM preincubated for 5 mins measured per mg protein by LC/MS/MS analysis; assay type: ADME, Microsome; details: read-out: CLH
[3] = (§1) Clearance in rat at 3 mg/kg, iv; assay type: ADME, organism-based; parameters: dose 3 mg/kg, route intravenous; details: in vivo
CYP2D6 = CYP2D6 (Homo sapiens, UniProt P10635); test: Inhibition of CYP2D6 in human microsomes using dextrpmethorphan as substrate at 10 uM after 5 mins; assay type: ADME, Microsome; details: probe dextromethorphan (printed: dextrpmethorphan)
CYP2D6, sequence (P10635 whole entry): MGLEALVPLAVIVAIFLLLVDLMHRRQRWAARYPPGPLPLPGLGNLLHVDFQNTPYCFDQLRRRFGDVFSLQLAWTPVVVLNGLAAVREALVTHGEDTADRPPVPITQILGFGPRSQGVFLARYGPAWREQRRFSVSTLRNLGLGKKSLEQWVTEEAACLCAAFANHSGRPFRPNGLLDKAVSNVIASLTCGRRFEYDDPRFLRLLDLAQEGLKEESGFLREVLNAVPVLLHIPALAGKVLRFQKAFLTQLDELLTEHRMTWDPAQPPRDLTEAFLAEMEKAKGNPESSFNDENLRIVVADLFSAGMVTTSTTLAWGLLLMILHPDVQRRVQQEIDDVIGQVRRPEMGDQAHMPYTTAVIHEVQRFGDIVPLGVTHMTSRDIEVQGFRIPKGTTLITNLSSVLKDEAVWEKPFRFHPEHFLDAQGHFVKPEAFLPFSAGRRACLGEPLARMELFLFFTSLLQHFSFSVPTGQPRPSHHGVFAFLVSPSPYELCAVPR

CYP1A2 = target: T1, CYP1A2 (Homo sapiens, UniProt P05177); test: Inhibition of CYP1A2 in human microsomes using phenacetin as substrate at 10 uM after 5 mins; assay type: ADME, Microsome; details: probe phenacetin
T1 sequence (P05177 whole entry): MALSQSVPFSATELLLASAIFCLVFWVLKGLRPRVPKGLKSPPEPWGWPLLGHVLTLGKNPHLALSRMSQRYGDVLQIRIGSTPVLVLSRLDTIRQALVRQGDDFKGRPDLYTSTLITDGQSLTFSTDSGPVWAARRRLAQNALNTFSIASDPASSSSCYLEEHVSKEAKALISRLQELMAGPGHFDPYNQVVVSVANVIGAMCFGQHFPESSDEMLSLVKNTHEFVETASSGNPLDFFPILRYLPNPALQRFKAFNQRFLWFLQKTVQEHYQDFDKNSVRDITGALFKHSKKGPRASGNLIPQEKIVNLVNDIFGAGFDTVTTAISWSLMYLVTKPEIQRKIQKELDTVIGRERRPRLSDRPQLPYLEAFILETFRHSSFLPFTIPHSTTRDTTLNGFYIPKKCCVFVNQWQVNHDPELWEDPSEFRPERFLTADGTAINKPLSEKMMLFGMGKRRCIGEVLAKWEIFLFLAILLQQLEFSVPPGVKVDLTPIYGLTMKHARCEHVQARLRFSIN

[4] = Half life in rat at 6 mg/kg, po; assay type: ADME, organism-based; parameters: dose 6 mg/kg, route oral; details: in vivo
[5] = (§2) Oral bioavailability in rat at 6 mg/kg; assay type: ADME, organism-based; details: in vivo
[6] = (§3) AUC (0 to t) in rat at 6 mg/kg, po; assay type: ADME, organism-based, Plasma; parameters: dose 6 mg/kg, route oral; details: plasma
Rattus norvegicus [7] = test: as §1; assay type: ADME, organism-based; parameters: dose 3 mg/kg, route intravenous; details: in vivo
Rattus norvegicus [8] = test: as §2; assay type: ADME, organism-based; details: in vivo
Rattus norvegicus [9] = test: as §3; assay type: ADME, organism-based, Plasma; parameters: dose 6 mg/kg, route oral; details: in vivo

## Cn1cccc1C(=O)N1CCC[C@H](c2nc(-c3ccccc3)no2)C1
[1]
  pIC50: 6.15

## Cc1c(Cl)cccc1C(=O)N1CCC[C@H](c2nc(-c3ccc(Br)cc3)no2)C1
[1]
  pIC50: < 6.00

## Cc1c(Cl)cccc1C(=O)N1CCC[C@H](c2nc(-c3cccc(Br)c3)no2)C1
[1]
  pIC50: 6.51

## Cc1ccccc1C(=O)N1CCC[C@H](c2nc(-c3ccccc3)no2)C1
[1]
  pIC50: 6.36

## Cc1c(Cl)cccc1C(=O)N1CCC[C@H](c2nc(C3CCCCC3)no2)C1
[1]
  pIC50: 6.21

## O=C(c1ccccc1)N1CCC[C@H](c2nc(-c3ccccc3)no2)C1
[1]
  pIC50: 5.62

## CC1(C)C(C(=O)N2CCC[C@H](c3nc(-c4ccccc4)no3)C2)C1(C)C
[1]
  pIC50: 6.10

## Cc1c(Cl)cccc1C(=O)N1CCC[C@H](c2nc(-c3ccc(F)cc3)no2)C1
[1]
  pIC50: 6.02

## O=C(c1ccc(Cl)cc1)N1CCC[C@H](c2nc(-c3ccccc3)no2)C1
[1]
  pIC50: 6.56

## O=C(c1cccc(Cl)c1)N1CCC[C@H](c2nc(-c3ccccc3)no2)C1
[1]
  pIC50: 6.13

## Cc1c(Cl)cccc1C(=O)N1CCC[C@H](c2nnc(-c3ccccc3)o2)C1
[1]
  pIC50: 5.88

## O=C(C1CC1)N1CCC[C@H](c2nc(-c3ccccc3)no2)C1
[1]
  pIC50: 7.04

## Cc1c(Cl)cccc1C(=O)N1CCC[C@H](c2nc(-c3ccccc3Cl)no2)C1
[1]
  pIC50: 6.56

## Cc1cccc(C(=O)N2CCC[C@H](c3nc(-c4ccccc4)no3)C2)c1Cl
[1]
  pIC50: 7.55

## Cn1ccc2c(C(=O)N3CCC[C@H](c4nc(-c5ccccc5)no4)C3)cccc21
[1]
  pIC50: 6.85

## Cc1c(Cl)cccc1C(=O)N1CCC[C@H](c2nc(C34CC5CC(CC(C5)C3)C4)no2)C1
[1]
  pIC50: < 6.00

## Cc1c(Cl)cccc1C(=O)N1CCC[C@H](c2nc(-c3ccccc3Br)no2)C1
[1]
  pIC50: 6.08

## Cc1c(Cl)cccc1S(=O)(=O)N1CCC[C@H](C(=O)NC2CCCCC2)C1
CYP3A4
  inhibition at 5 min, 10 µM: 73%
[2]
  microsomal CLint at 1 µM: 209 µL/min/mg
[3]
  clearance: 130 mL/min/kg
CYP2D6
  inhibition at 5 min, 10 µM: 34%
[1]
  pIC50: 9.10
CYP1A2
  inhibition at 5 min, 10 µM: 16%
[4]
  half-life: 0.4 h
[5]
  bioavailability: 8%
[6]
  AUC(0-t): 0.188 µM·h

## O=C(C1CCCCCC1)N1CCC[C@H](c2nc(-c3ccccc3)no2)C1
[1]
  pIC50: 5.83

## Cc1c(Cl)cccc1C(=O)N1CCC[C@H](c2nnc(-c3ccccc3)[nH]2)C1
[1]
  pIC50: 6.02

## O=C(C1CCC1)N1CCC[C@H](c2nc(-c3ccccc3)no2)C1
[1]
  pIC50: 6.49

## O=C(c1ccco1)N1CCC[C@H](c2nc(-c3ccccc3)no2)C1
[1]
  pIC50: 6.18

## Cc1c(Cl)cccc1C(=O)N1CCC[C@H](c2nc(-c3cccs3)no2)C1
[1]
  pIC50: < 6.00

## Cc1c(Cl)cccc1C(=O)N1CCC[C@H](n2nnc(-c3ccccc3)n2)C1
[1]
  pIC50: 6.23

## Cc1c(Cl)cccc1C(=O)N1CCC[C@H](c2noc(-c3ccccc3)n2)C1
[1]
  pIC50: 6.97

## Cc1c(Cl)cccc1C(=O)N1CCC[C@H](c2nc(-c3ccccc3)no2)C1
[1]
  pIC50: 7.57

## O=C(C1CCCCC1)N1CCC[C@H](c2nc(-c3ccccc3)no2)C1
CYP3A4
  inhibition at 5 min, 10 µM: 7.7%
[2]
  microsomal CLint at 1 µM: 44 µL/min/mg
Rattus norvegicus [7]
  CL: 24 mL/min/kg
CYP2D6
  inhibition at 5 min, 10 µM: 12%
[1]
  pIC50: 7.15
CYP1A2
  inhibition at 5 min, 10 µM: 16%
[4]
  half-life: 1.3 h
Rattus norvegicus [8]
  F: 36%
Rattus norvegicus [9]
  AUCt: 25.3 µM·min

## Cc1c(Br)cccc1C(=O)N1CCC[C@H](c2nc(-c3ccccc3)no2)C1
CYP3A4
  inhibition at 5 min, 10 µM: 22%
[2]
  microsomal CLint at 1 µM: 63 µL/min/mg
Rattus norvegicus [7]
  CL: 16 mL/min/kg
CYP2D6
  inhibition at 5 min, 10 µM: 0%
[1]
  pIC50: 8.48
CYP1A2
  inhibition at 5 min, 10 µM: 0%
[4]
  half-life: 2.1 h
Rattus norvegicus [8]
  F: 25%
Rattus norvegicus [9]
  AUCt: 34.1 µM·min

## O=C(c1ccccc1Cl)N1CCC[C@H](c2nc(-c3ccccc3)no2)C1
[1]
  pIC50: 6.07
